# Results reported in paper PMC11189555, “Aryl amino acetamides prevent Plasmodium falciparum ring development via targeting the lipid-transfer protein PfSTART1” (Nature Communications, 2024).
# Columns and labels:
# [1] = test system: PopE-F10 M-833 resistant clone (PfSTART1 N330K); assay: Growth inhibition assay (72 h, LDH activity); type: cell-based, Plasmodium falciparum
# Method in brief: (§1)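 Synchronised ring-stage 3D7-derived clones (0.3-0.6% parasitemia, 2% haematocrit) grown 72 h in compound serial dilutions, some with 0, 0.25 or 2.5 mM glucosamine. Growth read as LDH activity after freeze-thaw (Malstat/NBT, A650), normalised to DMSO and uninfected RBC; EC50 from variable-slope log(inhibitor) fit.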
# in vitro = settings: human
# [2] = test system: PopD-D7 M-833 resistant clone (PfSTART1 N309K); assay: Growth inhibition assay (72 h, LDH activity); type: cell-based, Plasmodium falciparum
# Method in brief: as §1
smiles,measurement,setting,value
CC(C)(Nc1ccc(Cl)c(S(=O)(=O)N2CCOCC2)c1)C(=O)Nc1ccc(F)c(Cl)c1 [W-991],EC50,"[1]; Plasmodium falciparum, 72 h, Supplementary Table 1, PopE-F10 (N330K), 72 h, read-out: EC50",> 0.2 µM
same,resistance of the line compared with 3D7,"[1]; PopE-F10 (N330K), Fig 4B",highly resistant
same,(av-uRBC) / (DMSO-uRBC) x100,"[1]; PopE-F10, 0.0762079 nM, biological replicate 1",96.1179
same,(av-uRBC) / (DMSO-uRBC) x100,"[1]; PopE-F10, 0.0762079 nM, biological replicate 2",104.725
same,(av-uRBC) / (DMSO-uRBC) x100,"[1]; PopE-F10, 0.0762079 nM, biological replicate 3",92.7129
same,(av-uRBC) / (DMSO-uRBC) x100,"[1]; PopE-F10, 0.228624 nM, biological replicate 1",102.983
same,(av-uRBC) / (DMSO-uRBC) x100,"[1]; PopE-F10, 0.228624 nM, biological replicate 2",105.368
same,(av-uRBC) / (DMSO-uRBC) x100,"[1]; PopE-F10, 0.228624 nM, biological replicate 3",109.575
same,(av-uRBC) / (DMSO-uRBC) x100,"[1]; PopE-F10, 0.685871 nM, biological replicate 1",97.996
same,(av-uRBC) / (DMSO-uRBC) x100,"[1]; PopE-F10, 0.685871 nM, biological replicate 2",105.748
same,(av-uRBC) / (DMSO-uRBC) x100,"[1]; PopE-F10, 0.685871 nM, biological replicate 3",95.4244
same,(av-uRBC) / (DMSO-uRBC) x100,"[1]; PopE-F10, 2.05761 nM, biological replicate 1",96.037
same,(av-uRBC) / (DMSO-uRBC) x100,"[1]; PopE-F10, 2.05761 nM, biological replicate 2",105.199
same,(av-uRBC) / (DMSO-uRBC) x100,"[1]; PopE-F10, 2.05761 nM, biological replicate 3",105.366
same,(av-uRBC) / (DMSO-uRBC) x100,"[1]; PopE-F10, 6.17284 nM, biological replicate 1",97.8882
same,(av-uRBC) / (DMSO-uRBC) x100,"[1]; PopE-F10, 6.17284 nM, biological replicate 2",105.604
same,(av-uRBC) / (DMSO-uRBC) x100,"[1]; PopE-F10, 6.17284 nM, biological replicate 3",97.9523
same,(av-uRBC) / (DMSO-uRBC) x100,"[1]; PopE-F10, 18.5185 nM, biological replicate 1",96.9806
same,(av-uRBC) / (DMSO-uRBC) x100,"[1]; PopE-F10, 18.5185 nM, biological replicate 2",104.615
same,(av-uRBC) / (DMSO-uRBC) x100,"[1]; PopE-F10, 18.5185 nM, biological replicate 3",86.3579
same,(av-uRBC) / (DMSO-uRBC) x100,"[1]; PopE-F10, 55.5556 nM, biological replicate 1",92.6042
same,(av-uRBC) / (DMSO-uRBC) x100,"[1]; PopE-F10, 55.5556 nM, biological replicate 2",99.4928
same,(av-uRBC) / (DMSO-uRBC) x100,"[1]; PopE-F10, 55.5556 nM, biological replicate 3",87.996
same,(av-uRBC) / (DMSO-uRBC) x100,"[1]; PopE-F10, 166.667 nM, biological replicate 1",76.4288
same,(av-uRBC) / (DMSO-uRBC) x100,"[1]; PopE-F10, 166.667 nM, biological replicate 2",88.6391
same,(av-uRBC) / (DMSO-uRBC) x100,"[1]; PopE-F10, 166.667 nM, biological replicate 3",66.2195
same,(av-uRBC) / (DMSO-uRBC) x100,"[1]; PopE-F10, 500 nM, biological replicate 1",33.5999
same,(av-uRBC) / (DMSO-uRBC) x100,"[1]; PopE-F10, 500 nM, biological replicate 2",49.6703
same,(av-uRBC) / (DMSO-uRBC) x100,"[1]; PopE-F10, 500 nM, biological replicate 3",27.1431
same,Fold change compared to 3D7,"[1]; Supplementary Table 1, EC50 on PopE-F10 vs 3D7",> 278 fold
same,CC50,in vitro,29 µM
same,EC50,"[2]; Plasmodium falciparum, Supplementary Table 1, PopD-D7 (N309K), 72 h, read-out: EC50",> 0.2 µM
same,resistance of the line compared with 3D7,"[2]; PopD-D7 (N309K), Fig 4B",highly resistant
same,(av-uRBC) / (DMSO-uRBC) x100,"[2]; PopD-D7, 0.0762079 nM, biological replicate 1",96.5635
same,(av-uRBC) / (DMSO-uRBC) x100,"[2]; PopD-D7, 0.0762079 nM, biological replicate 2",102.6
same,(av-uRBC) / (DMSO-uRBC) x100,"[2]; PopD-D7, 0.0762079 nM, biological replicate 3",87.8712
same,(av-uRBC) / (DMSO-uRBC) x100,"[2]; PopD-D7, 0.228624 nM, biological replicate 1",100.291
same,(av-uRBC) / (DMSO-uRBC) x100,"[2]; PopD-D7, 0.228624 nM, biological replicate 2",103.59
same,(av-uRBC) / (DMSO-uRBC) x100,"[2]; PopD-D7, 0.228624 nM, biological replicate 3",90.7443
same,(av-uRBC) / (DMSO-uRBC) x100,"[2]; PopD-D7, 0.685871 nM, biological replicate 1",102.374
same,(av-uRBC) / (DMSO-uRBC) x100,"[2]; PopD-D7, 0.685871 nM, biological replicate 2",101.183
same,(av-uRBC) / (DMSO-uRBC) x100,"[2]; PopD-D7, 0.685871 nM, biological replicate 3",89.0089
same,(av-uRBC) / (DMSO-uRBC) x100,"[2]; PopD-D7, 2.05761 nM, biological replicate 1",98.4575
same,(av-uRBC) / (DMSO-uRBC) x100,"[2]; PopD-D7, 2.05761 nM, biological replicate 2",102.962
same,(av-uRBC) / (DMSO-uRBC) x100,"[2]; PopD-D7, 2.05761 nM, biological replicate 3",86.5214
same,(av-uRBC) / (DMSO-uRBC) x100,"[2]; PopD-D7, 6.17284 nM, biological replicate 1",97.3005
same,(av-uRBC) / (DMSO-uRBC) x100,"[2]; PopD-D7, 6.17284 nM, biological replicate 2",103.791
same,(av-uRBC) / (DMSO-uRBC) x100,"[2]; PopD-D7, 6.17284 nM, biological replicate 3",87.2349
same,(av-uRBC) / (DMSO-uRBC) x100,"[2]; PopD-D7, 18.5185 nM, biological replicate 1",94.5325
same,(av-uRBC) / (DMSO-uRBC) x100,"[2]; PopD-D7, 18.5185 nM, biological replicate 2",103.019
same,(av-uRBC) / (DMSO-uRBC) x100,"[2]; PopD-D7, 18.5185 nM, biological replicate 3",88.7968
same,(av-uRBC) / (DMSO-uRBC) x100,"[2]; PopD-D7, 55.5556 nM, biological replicate 1",87.2483
same,(av-uRBC) / (DMSO-uRBC) x100,"[2]; PopD-D7, 55.5556 nM, biological replicate 2",102.262
same,(av-uRBC) / (DMSO-uRBC) x100,"[2]; PopD-D7, 55.5556 nM, biological replicate 3",77.42
same,(av-uRBC) / (DMSO-uRBC) x100,"[2]; PopD-D7, conc. 166.667 nM, Biological replicate 1 (2021-10-25)",74.488
same,(av-uRBC) / (DMSO-uRBC) x100,"[2]; PopD-D7, conc. 166.667 nM, Biological replicate 2 (2021-11-03)",97.8669
same,(av-uRBC) / (DMSO-uRBC) x100,"[2]; PopD-D7, conc. 166.667 nM, Biological replicate 3 (2021-11-11)",58.6579
same,(av-uRBC) / (DMSO-uRBC) x100,"[2]; PopD-D7, conc. 500 nM, Biological replicate 1 (2021-10-25)",40.3034
same,(av-uRBC) / (DMSO-uRBC) x100,"[2]; PopD-D7, conc. 500 nM, Biological replicate 2 (2021-11-03)",75.4488
same,(av-uRBC) / (DMSO-uRBC) x100,"[2]; PopD-D7, conc. 500 nM, Biological replicate 3 (2021-11-11)",31.855
same,Fold change compared to 3D7,"[2]; Supplementary Table 1, EC50 on PopD-D7 vs 3D7",> 278 fold
